Results: PubChem BioAssay AID2060625 (Molecular Pharmacology Branch, DTP, NCI, 2025)

Test system: 186277-243-T-J2-PDC spheroids with HUVEC/MSC, viability
Assay: Anticancer human tumor 186277-243-T-J2-PDC patient-derived colon adenocarcinoma cell line growth inhibition [CLK]
Details: for IC50: curve of first compound; for viability, T/C: stronger effect = lower value
Outline: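 Multi-cell-type spheroids combined patient-derived tumor cells with HUVEC endothelial cells and human mesenchymal stem cells. Paired agents were dosed in half-log steps down from about clinical Cmax, or from 10 microM where Cmax was unknown.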

[1] = second compound 0.0316 µM, first compound 0.0316 µM
[2] = second compound 0.0316 µM, first compound 0.1 µM
[3] = second compound 0.0316 µM, first compound 0.316 µM
[4] = second compound 0.0316 µM, first compound 1 µM
[5] = second compound 0.0316 µM, first compound 3.16 µM
[6] = second compound 0.0316 µM, first compound 10 µM
[7] = second compound 0.1 µM, first compound 0.0316 µM
[8] = second compound 0.1 µM, first compound 0.1 µM
[9] = second compound 0.1 µM, first compound 0.316 µM
[10] = second compound 0.1 µM, first compound 1 µM
[11] = second compound 0.1 µM, first compound 3.16 µM
[12] = second compound 0.1 µM, first compound 10 µM
[13] = second compound 0.316 µM, first compound 0.0316 µM
[14] = second compound 0.316 µM, first compound 0.1 µM
[15] = second compound 0.316 µM, first compound 0.316 µM
[16] = second compound 0.316 µM, first compound 1 µM
[17] = second compound 0.316 µM, first compound 3.16 µM
[18] = second compound 0.316 µM, first compound 10 µM
[19] = second compound 1 µM, first compound 0.0316 µM
[20] = second compound 1 µM, first compound 0.1 µM
[21] = second compound 1 µM, first compound 0.316 µM
[22] = second compound 1 µM, first compound 1 µM
[23] = second compound 1 µM, first compound 3.16 µM
[24] = second compound 1 µM, first compound 10 µM
[25] = second compound 3.16 µM, first compound 0.0316 µM
[26] = second compound 3.16 µM, first compound 0.1 µM
[27] = second compound 3.16 µM, first compound 0.316 µM
[28] = second compound 3.16 µM, first compound 1 µM
[29] = second compound 3.16 µM, first compound 3.16 µM
[30] = second compound 3.16 µM, first compound 10 µM
[31] = second compound 10 µM, first compound 0.0316 µM
[32] = second compound 10 µM, first compound 0.1 µM
[33] = second compound 10 µM, first compound 0.316 µM
[34] = second compound 10 µM, first compound 1 µM
[35] = second compound 10 µM, first compound 3.16 µM
[36] = second compound 10 µM, first compound 10 µM
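Note: compound exposure lasted seven days before readout.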
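Throughout, for viability, T/C: 100% = DMSO vehicle control wells.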

CC1(C)CCC(CN2CCN(c3ccc(C(=O)NS(=O)(=O)c4ccc(NCC5CCOCC5)c([N+](=O)[O-])c4)c(Oc4cnc5[nH]ccc5c4)c3)CC2)=C(c2ccc(Cl)cc2)C1 + CN1CCN(c2cc(C(=O)Nc3cc4cc(-c5cnn(C)c5)ccc4cn3)ccn2)CC1
IC50 (second compound 0.0316 µM): 5780 nM | IC50 (second compound 0.1 µM): 5350 nM | IC50 (second compound 0.316 µM): < 31.6 nM | IC50 (second compound 1 µM): < 31.6 nM | IC50 (second compound 3.16 µM): < 31.6 nM | IC50 (second compound 10 µM): < 31.6 nM | viability, T/C [1]: 92.5% | viability, T/C [2]: 93.2% | viability, T/C [3]: 94.6% | viability, T/C [4]: 92.1% | viability, T/C [5]: 104% | viability, T/C [6]: 8.6% | viability, T/C [7]: 82.4% | viability, T/C [8]: 76.3% | viability, T/C [9]: 87.6% | viability, T/C [10]: 94.5% | viability, T/C [11]: 101% | viability, T/C [12]: 4.42% | viability, T/C [13]: 30.1% | viability, T/C [14]: 32.8% | viability, T/C [15]: 23.6% | viability, T/C [16]: 30.9% | viability, T/C [17]: 25.3% | viability, T/C [18]: 2.48% | viability, T/C [19]: 0.62% | viability, T/C [20]: 0.92% | viability, T/C [21]: 0.31% | viability, T/C [22]: 0.75% | viability, T/C [23]: 1.8% | viability, T/C [24]: 0.48% | viability, T/C [25]: 1.95% | viability, T/C [26]: 0.91% | viability, T/C [27]: 1.71% | viability, T/C [28]: 1.07% | viability, T/C [29]: 1.36% | viability, T/C [30]: 0.41% | viability, T/C [31]: 0.95% | viability, T/C [32]: 1.04% | viability, T/C [33]: 1.34% | viability, T/C [34]: 0.91% | viability, T/C [35]: 0.55% | viability, T/C [36]: 0.2%

CC1COCCN1c1cc(C2(S(C)(=N)=O)CC2)nc(-c2ccnc3[nH]ccc23)n1 (centres undefined) + CN1CCN(c2cc(C(=O)Nc3cc4cc(-c5cnn(C)c5)ccc4cn3)ccn2)CC1
IC50 (second compound 0.0316 µM): 2250 nM | IC50 (second compound 0.1 µM): 1320 nM | IC50 (second compound 0.316 µM): < 31.6 nM | IC50 (second compound 1 µM): < 31.6 nM | IC50 (second compound 3.16 µM): < 31.6 nM | IC50 (second compound 10 µM): < 31.6 nM | viability, T/C [1]: 93.4% | viability, T/C [2]: 86.8% | viability, T/C [3]: 105% | viability, T/C [4]: 95% | viability, T/C [5]: 31.2% | viability, T/C [6]: 11.2% | viability, T/C [7]: 76.9% | viability, T/C [8]: 80.5% | viability, T/C [9]: 74.2% | viability, T/C [10]: 59.1% | viability, T/C [11]: 22.6% | viability, T/C [12]: 10.5% | viability, T/C [13]: 23.9% | viability, T/C [14]: 25.9% | viability, T/C [15]: 24.3% | viability, T/C [16]: 24.7% | viability, T/C [17]: 19.7% | viability, T/C [18]: 12.6% | viability, T/C [19]: 0.89% | viability, T/C [20]: 0.78% | viability, T/C [21]: 0.7% | viability, T/C [22]: 1.08% | viability, T/C [23]: 1.18% | viability, T/C [24]: 1.33% | viability, T/C [25]: 1.91% | viability, T/C [26]: 1.72% | viability, T/C [27]: 1.28% | viability, T/C [28]: 1.01% | viability, T/C [29]: 1.48% | viability, T/C [30]: 2.05% | viability, T/C [31]: 0.93% | viability, T/C [32]: 0.87% | viability, T/C [33]: 1.19% | viability, T/C [34]: 1.26% | viability, T/C [35]: 1.01% | viability, T/C [36]: 1.14%
